The record followed here is patent US20220009920A1 (GB005, Inc., priority 2020, published 2022).

Holding throughout (assay): Large panel kinase profiling
What all share (type): biochemical
Common to all, as to details: 1 μM test article, 1 mM ATP

The target of one assay is LYNA (Homo sapiens, UniProt P07948). Summed up: (§1)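 One compound concentration (1 μM) was screened against each kinase at 1 mM ATP using PhosphoSens CSox-Sensor detection, at 30° C., with fluorescence read every 1 min (Ex 360 nm/Em 485 nm).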
Sequence of LYNA (P07948 whole entry, species assumed): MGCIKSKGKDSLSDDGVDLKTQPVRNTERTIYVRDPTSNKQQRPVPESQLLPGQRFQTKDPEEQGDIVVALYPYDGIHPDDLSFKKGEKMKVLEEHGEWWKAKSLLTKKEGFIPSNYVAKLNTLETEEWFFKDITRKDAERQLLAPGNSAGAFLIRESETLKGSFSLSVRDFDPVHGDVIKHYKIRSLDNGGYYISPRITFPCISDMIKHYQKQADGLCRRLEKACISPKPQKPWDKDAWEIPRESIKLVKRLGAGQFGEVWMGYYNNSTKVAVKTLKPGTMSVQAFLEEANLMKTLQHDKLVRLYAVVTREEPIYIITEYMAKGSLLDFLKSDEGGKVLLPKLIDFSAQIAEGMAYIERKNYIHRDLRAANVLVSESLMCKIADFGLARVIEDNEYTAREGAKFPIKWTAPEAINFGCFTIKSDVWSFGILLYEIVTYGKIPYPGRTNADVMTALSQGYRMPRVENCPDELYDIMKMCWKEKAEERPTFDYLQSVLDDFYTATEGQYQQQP
The next assay has as its target FGFR4 (Homo sapiens, UniProt P22455). Summed up:
as §1

The target of the next assay is T1, MAP3K5 (Homo sapiens, UniProt Q99683).
T1 construct: AssayQuant Technologies, Inc. (service provider)
T1 sequence (Q99683 1-1374): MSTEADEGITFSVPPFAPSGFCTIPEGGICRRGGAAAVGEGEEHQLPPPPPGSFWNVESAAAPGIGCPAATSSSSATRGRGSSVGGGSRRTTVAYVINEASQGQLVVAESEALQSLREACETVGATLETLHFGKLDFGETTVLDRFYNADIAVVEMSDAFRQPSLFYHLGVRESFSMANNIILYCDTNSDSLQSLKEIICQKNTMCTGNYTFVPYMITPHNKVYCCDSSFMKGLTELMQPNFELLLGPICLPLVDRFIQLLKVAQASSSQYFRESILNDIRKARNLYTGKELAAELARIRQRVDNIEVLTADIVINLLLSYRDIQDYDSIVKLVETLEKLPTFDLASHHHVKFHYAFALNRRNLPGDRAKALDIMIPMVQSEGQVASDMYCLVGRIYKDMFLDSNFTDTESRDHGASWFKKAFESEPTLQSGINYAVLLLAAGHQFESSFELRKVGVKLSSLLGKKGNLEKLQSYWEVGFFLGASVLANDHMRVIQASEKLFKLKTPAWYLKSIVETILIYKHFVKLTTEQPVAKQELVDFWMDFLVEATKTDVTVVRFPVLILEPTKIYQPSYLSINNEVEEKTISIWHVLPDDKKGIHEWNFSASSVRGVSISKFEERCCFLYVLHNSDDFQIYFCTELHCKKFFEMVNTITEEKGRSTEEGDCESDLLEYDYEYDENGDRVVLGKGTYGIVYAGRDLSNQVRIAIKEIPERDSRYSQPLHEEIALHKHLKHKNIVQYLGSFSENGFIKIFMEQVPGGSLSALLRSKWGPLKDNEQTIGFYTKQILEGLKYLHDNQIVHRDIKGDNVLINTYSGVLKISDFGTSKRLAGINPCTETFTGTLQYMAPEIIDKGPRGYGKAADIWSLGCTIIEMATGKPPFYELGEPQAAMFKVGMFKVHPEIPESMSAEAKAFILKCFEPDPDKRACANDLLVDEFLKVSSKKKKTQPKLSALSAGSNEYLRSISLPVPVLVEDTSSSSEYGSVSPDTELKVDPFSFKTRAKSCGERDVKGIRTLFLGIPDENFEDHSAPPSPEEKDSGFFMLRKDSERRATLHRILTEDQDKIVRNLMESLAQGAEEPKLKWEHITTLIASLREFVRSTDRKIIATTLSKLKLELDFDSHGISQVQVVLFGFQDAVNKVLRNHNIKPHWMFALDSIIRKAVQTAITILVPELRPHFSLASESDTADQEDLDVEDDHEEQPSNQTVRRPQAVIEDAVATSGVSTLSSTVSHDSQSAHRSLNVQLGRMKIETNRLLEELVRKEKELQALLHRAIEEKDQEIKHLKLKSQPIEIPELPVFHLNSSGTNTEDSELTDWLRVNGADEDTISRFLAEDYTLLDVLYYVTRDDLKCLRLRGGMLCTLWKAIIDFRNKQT
Summed up: as §1

A further assay has as its target T2, STK3/MST2 (Homo sapiens, UniProt Q13188).
T2 construct: AssayQuant Technologies, Inc. (contract assay)
T2 sequence (Q13188 1-491): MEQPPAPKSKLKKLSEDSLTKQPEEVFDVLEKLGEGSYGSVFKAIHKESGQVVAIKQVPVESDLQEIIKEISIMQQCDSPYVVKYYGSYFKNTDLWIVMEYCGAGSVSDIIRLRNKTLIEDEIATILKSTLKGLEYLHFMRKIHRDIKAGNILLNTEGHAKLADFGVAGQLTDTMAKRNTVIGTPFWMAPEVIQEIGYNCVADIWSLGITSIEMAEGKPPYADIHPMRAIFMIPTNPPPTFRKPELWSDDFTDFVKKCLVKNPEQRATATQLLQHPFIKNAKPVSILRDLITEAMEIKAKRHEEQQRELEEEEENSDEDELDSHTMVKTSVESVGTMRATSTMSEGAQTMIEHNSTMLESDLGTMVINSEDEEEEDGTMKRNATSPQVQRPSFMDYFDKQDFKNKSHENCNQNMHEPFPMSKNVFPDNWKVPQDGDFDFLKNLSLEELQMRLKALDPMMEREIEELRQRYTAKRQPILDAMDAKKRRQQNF
In a few lines: as §1

Sequence of FGFR4 (P22455 22-802, species assumed): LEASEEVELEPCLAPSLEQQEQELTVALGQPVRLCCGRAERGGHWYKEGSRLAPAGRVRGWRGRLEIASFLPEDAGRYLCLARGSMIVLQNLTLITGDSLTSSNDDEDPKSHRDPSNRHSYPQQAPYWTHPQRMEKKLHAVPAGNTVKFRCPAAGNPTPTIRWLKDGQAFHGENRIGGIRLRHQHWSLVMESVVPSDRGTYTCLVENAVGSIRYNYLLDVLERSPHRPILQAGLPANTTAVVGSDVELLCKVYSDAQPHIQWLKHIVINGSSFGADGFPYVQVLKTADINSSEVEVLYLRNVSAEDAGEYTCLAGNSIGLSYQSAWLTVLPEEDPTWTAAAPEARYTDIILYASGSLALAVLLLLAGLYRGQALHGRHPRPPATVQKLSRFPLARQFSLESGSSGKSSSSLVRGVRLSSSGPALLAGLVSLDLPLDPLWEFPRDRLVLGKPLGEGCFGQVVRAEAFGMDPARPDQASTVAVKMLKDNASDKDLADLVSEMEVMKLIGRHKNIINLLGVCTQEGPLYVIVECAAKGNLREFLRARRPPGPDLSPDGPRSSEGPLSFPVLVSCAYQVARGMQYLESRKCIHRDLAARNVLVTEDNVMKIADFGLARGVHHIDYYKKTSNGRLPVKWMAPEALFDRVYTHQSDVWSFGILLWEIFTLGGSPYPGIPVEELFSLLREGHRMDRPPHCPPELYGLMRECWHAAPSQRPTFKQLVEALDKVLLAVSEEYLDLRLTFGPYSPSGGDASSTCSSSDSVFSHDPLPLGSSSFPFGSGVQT

For `C=CC(=O)N1CCCC(c2c(F)cc(C(N)=O)c3[nH]c4c(c23)CCCCC4)C1` (single isomer, unassigned) [Compound 5-6], the inhibition at 1 µM against LYNA is -2.9%; against FGFR4 it was 24.5%; against MAP3K5 it was -10.4%; on STK3/MST2 it was -13.7%.
On the same counts, the results for `C=CC(=O)N1CCC[C@@H](c2c(F)cc(C(N)=O)c3[nH]c4c(c23)CC2(CC4)CC2)C1` [Compound 6-2, (S)-5-(1-acryloylpiperidin-3-yl)-6-fluoro-1,2,4,9-tetrahydrospiro[carbazole-3,1′-cyclopropane]-8-carboxamide] are 36.4%, 4.9%, 20% and -25.3%.
Taken in the same sequence, the figures for `C=CC(=O)N1CCC[C@@H](c2c(F)cc(C(N)=O)c3[nH]c4c(c23)CCC4)C1` [Compound 10-2, (S)-8-(1-acryloylpiperidin-3-yl)-7-fluoro-1,2,3,4-tetrahydrocyclo-penta[b]indole-5-carboxamide] were 22.8%, 9.8%, 16.7% and -14.4%.
